{"source": "patent US20070225351A1", "about": "“Methods and compositions for controlling body weight and appetite” (priority 2002, published 2007)", "key": {"[1]": {"assay": "Toxicokinetic evaluation in rats", "conditions": "rat, in vivo", "procedure": "For toxicokinetic evaluation, all animals were observed twice daily for mortality and moribundity. Blood samples were collected from three animals/sex/group at 0 (pre-dose), 1, 2, 4, 8 and 24 hours after dose administration on study days 0 and 87. All toxicokinetic animals were euthanized and discarded following the final blood collection (study day 88)."}, "[2]": {"assay": "Effect on weight gain in male DIO rats", "type": "in vivo, rat", "procedure": "Male DIO rats, weighing approximately 200 g each were housed singly in plastic cages with wood litter and free access to food and water in a vivarium maintained under a 12 hour light/dark cycle at 21±3°. After an acclimatization period of 1 week, the studies were initiated. During the study period, access to food and water was restricted for 3 hours per day (1000 to 1300 hrs). On day 0, the amount of food and water consumed was measured in all rats in the absence of any treatment. […] A cannabinoid receptor blocker, termed AM251, and an enantiomer of fenfluramine, termed d-FEN1, both of which are known to regulate the melanocortin pathways in animals, were also administered for comparison purposes. Test compounds or vehicle were then orally administered in a volume of 5 mL/kg 60 minutes before access to food and water (0900 hrs). Body weight was measured prior to and 18 hours after administration of the various compounds."}, "in vivo": {"assay": "in vivo", "type": "in vivo", "conditions": "both sexes, beagle, dog, in vivo, po", "procedure": "Eighteen male and eighteen female beagle dogs were received from Ridglan Farms, Mt. Horeb, Wis. […] Each group consisted of four males and four females. All animals/sex/group were scheduled for the primary necropsy at the end of the 13-week treatment period.\nThe animals were observed twice daily for mortality and moribundity. Clinical examinations were performed daily at the time of dosing and approximately 1-2 and approximately 3 hours following dose administration. Detailed physical examinations were performed weekly. Clinical pathology evaluations (hematology, serum chemistry and urinalysis) were performed prior to the initiation of dose administration (study week-1) and prior to the scheduled necropsy (study week 13). Individual body weights were recorded weekly, beginning approximately two weeks prior to test article administration (study week-2). Mean body weights and mean body weight changes were calculated for each corresponding interval. Final body weights (fasted) were recorded prior to the scheduled necropsy. […] Gross lesions were also examined from the 2.0 and 6.0 mg/kg/day groups."}, "[3]": {"conditions": "female, Crl:CD(SD)IGS BR (Sprague-Dawley), po, 60 mg/kg/day"}, "[4]": {"conditions": "female, Crl:CD(SD)IGS BR, po, 10 mg/kg/day"}, "[5]": {"conditions": "female, Crl:CD(SD)IGS BR, po, 25 mg/kg/day"}, "[6]": {"conditions": "male, Crl:CD(SD)IGS BR, po, 10 mg/kg/day"}, "[7]": {"conditions": "male, Crl:CD(SD)IGS BR, po, 25 mg/kg/day"}, "[8]": {"conditions": "male, Crl:CD(SD)IGS BR, po, 60 mg/kg/day"}}, "note": "Like-named read-outs stand apart in the source and are kept apart here.", "data": [{"smiles": "Clc1ccc([C@]23CNCC2C3)cc1Cl", "note": "(single isomer, unassigned; (+)) [(+)-1-(3,4-dichlorophenyl)-3-azabicyclo[3.1.0]hexane]", "values": [{"measurement": "AUC(0-t)", "setting": "[1]; Crl:CD(SD)IGS BR (Sprague-Dawley), male rats, 10 mg/kg/day oral, Day 87, read-out: AUC0-24 h", "value": 8130, "unit": "ng·h/mL"}, {"measurement": "AUC(0-t)", "setting": "[1]; Crl:CD(SD)IGS BR, female rats, 10 mg/kg/day oral, Day 87, read-out: AUC0-24 h", "value": 14400, "unit": "ng·h/mL"}, {"measurement": "AUC0-24 h", "setting": "[1]; [3]", "value": 88137, "unit": "ng·h/mL"}, {"measurement": "AUC(0-t)", "setting": "[1]; female, Crl:CD(SD)IGS BR (Sprague-Dawley), po, 60 mg/kg/day, AUC0-24 h", "value": 54400, "unit": "ng·h/mL"}, {"measurement": "Cmax", "setting": "[1]; [3]", "value": 6600, "unit": "ng/mL"}, {"measurement": "Tmax", "setting": "[1]; [3]", "value": 2, "unit": "h"}, {"measurement": "AUC(0-t)", "setting": "[1]; female, Crl:CD(SD)IGS BR, po, 10 mg/kg/day, AUC0-24 h", "value": 10900, "unit": "ng·h/mL"}, {"measurement": "Cmax", "setting": "[1]; [4]", "value": 1390, "unit": "ng/mL"}, {"measurement": "Tmax", "setting": "[1]; [4]", "value": 1, "unit": "h"}, {"measurement": "AUC0-24 h", "setting": "[1]; [5]", "value": 30205, "unit": "ng·h/mL"}, {"measurement": "AUC(0-t)", "setting": "[1]; female, Crl:CD(SD)IGS BR, po, 25 mg/kg/day, AUC0-24 h", "value": 31000, "unit": "ng·h/mL"}, {"measurement": "Cmax", "setting": "[1]; [5]", "value": 2810, "unit": "ng/mL"}, {"measurement": "Tmax", "setting": "[1]; [5]", "value": 2, "unit": "h"}, {"measurement": "AUC(0-t)", "setting": "[1]; male, Crl:CD(SD)IGS BR (Sprague-Dawley), po, 10 mg/kg/day, AUC0-24 h", "value": 5940, "unit": "ng·h/mL"}, {"measurement": "Cmax", "setting": "[1]; [6]", "value": 863, "unit": "ng/mL"}, {"measurement": "Tmax", "setting": "[1]; [6]", "value": 2, "unit": "h"}, {"measurement": "AUC0-24 h", "setting": "[1]; [7]", "value": 21975, "unit": "ng·h/mL"}, {"measurement": "AUC(0-t)", "setting": "[1]; male, Crl:CD(SD)IGS BR, po, 25 mg/kg/day, AUC0-24 h", "value": 17400, "unit": "ng·h/mL"}, {"measurement": "Cmax", "setting": "[1]; [7]", "value": 2360, "unit": "ng/mL"}, {"measurement": "Tmax", "setting": "[1]; [7]", "value": 2, "unit": "h"}, {"measurement": "AUC0-24 h", "setting": "[1]; [8]", "value": 60093, "unit": "ng·h/mL"}, {"measurement": "AUC(0-t)", "setting": "[1]; male, Crl:CD(SD)IGS BR, po, 60 mg/kg/day, AUC0-24 h", "value": 36300, "unit": "ng·h/mL"}, {"measurement": "Cmax", "setting": "[1]; [8]", "value": 3680, "unit": "ng/mL"}, {"measurement": "Tmax", "setting": "[1]; [8]", "value": 1, "unit": "h"}, {"measurement": "body weight gain compared to vehicle", "setting": "[2]; oral 2, 4, 6, 20 and 40 mg/kg, 18 hours after administration", "value": "dose-dependently suppressed this body weight gain"}, {"measurement": "effect on body weight compared with AM251 or d-FEN1", "setting": "[2]; oral doses of 20 and 40 mg/kg, 18 hours", "value": "significantly more effective than either AM251 or d-FEN1"}, {"measurement": "NOAEL at 13 weeks", "setting": "in vivo", "value": 6, "unit": "mg/kg/day"}]}]}
